The record followed here is patent US20240131028A1, “CHEMOVACCINATION AGAINST PLASMODIUM INFECTION WITH SELECTIVE PLASMEPSIN X INHIBITORS” (Merck Sharp & Dohme LLC, priority 2021, published 2024).

For orientation: EC50 means the concentration giving half of the maximal effect.

SMILES strings stand for the structures.

One assay has as its system ring stage parasites (Pf). Nature of the assay: Parasite lactate dehydrogenase (LDH) growth assay (Parasite Assay, PfLDH Assay). It counts as cell-based, P. falciparum. To be noted: Plasmodium falciparum, 72 h, Table 3; 72 hours growth, LDH readout; read-out: EC50.
On to `Cc1ccc2c(c1)OC(C)(C)C[C@H]2NC(=O)[C@H]1C[C@@H]1[C@@H](c1cccnc1)N1C(=N)NC(C)(C)CC1=O` [Example 85B], for which the EC50 stood at 0.9 nM. The same measure, in the same setting: the value for `CC1(C)CC(=O)N([C@H](c2cccnc2)[C@H]2C[C@@H]2C(=O)N[C@@H]2CC(C)(C)Oc3cccc(F)c32)C(=N)N1` [Example 86A] was 2.2 nM; that for `CC1(C)CC(=O)N(C[C@H]2C[C@@H]2C(=O)N[C@H]2CC(C)(C)Oc3cccc(F)c32)C(=N)N1` [Example 87] was 160 nM; that for `COCC[C@H]([C@H]1C[C@@H]1C(=O)N[C@H]1CC(C)(C)Oc2cccc(F)c21)N1C(=N)NC(C)(C)CC1=O` [Example 88A] was 5.2 nM. The same measure, in the same setting: for `COCC[C@H]([C@H]1C[C@@H]1C(=O)N[C@@H]1CC(C)(C)Oc2cccc(F)c21)N1C(=N)NC(C)(C)CC1=O` [Example 88B] the value was 10 nM; for `COCC[C@H]([C@H]1C[C@@H]1C(=O)N[C@H]1CC(C)(C)Oc2cc(Cl)ccc21)N1C(=N)NC(C)(C)CC1=O` [Example 89A], 5.6 nM; for `COCC[C@H]([C@H]1C[C@@H]1C(=O)N[C@@H]1CC(C)(C)Oc2cc(Cl)ccc21)N1C(=N)NC(C)(C)CC1=O` [Example 89B], 22 nM. On the same count and under the same terms, the value for `CC1(C)CC(=O)N(C[C@H]2C[C@@H]2C(=O)N[C@H]2CC(C)(C)Oc3cc(Cl)ccc32)C(=N)N1` [Example 90] was 225 nM; that for `CC1(C)CC(=O)N([C@@H](c2cccnc2)[C@H]2C[C@@H]2C(=O)N[C@H]2CC(C)(C)Oc3cc(Cl)ccc32)C(=N)N1` [Example 91A] was 0.8 nM. Turning to `CC1(C)CC(=O)N([C@H](c2cccnc2)[C@H]2C[C@@H]2C(=O)N[C@H]2CC(C)(C)Oc3cc(Cl)ccc32)C(=N)N1` [Example 91B], the concentration giving a half-maximal response (EC50) was 2.7 nM. Still for that read-out and setting: for `CCC1(CC)CC(NC(=O)[C@H]2C[C@@H]2[C@@H](CCOC)N2C(=N)NC(C)(C)CC2=O)c2ccccc2O1` (some centres unmarked) [Example 92A] the value was 7.6 nM; for `CC1(C)CC(=O)N([C@H](c2cccnc2)[C@H]2C[C@@H]2C(=O)NC2CC(C)(C)Oc3c(F)cccc32)C(=N)N1` (some centres unmarked) [Example 93A], 3.3 nM; for `CC1(C)CC(=O)N([C@H](c2cccnc2)[C@H]2C[C@@H]2C(=O)NC2CC(C)(C)Oc3c(Cl)cc(Cl)cc32)C(=N)N1` (some centres unmarked) [Example 94A], 0.9 nM.

On to `CC1(C)CC(=O)N(C[C@H]2C[C@@H]2C(=O)N[C@H]2CC(C)(C)Oc3ccc(Cl)cc32)C(=N)N1` [Example 95], for which the 50% effective concentration (EC50) came to 110 nM.

On to `COc1cccc2c1C(NC(=O)[C@H]1C[C@@H]1[C@@H](c1cccnc1)N1C(=N)NC(C)(C)CC1=O)CC(C)(C)O2` (some centres unmarked) [Example 96A], for which the EC50 was determined as 2.7 nM. Take `CC1(C)CC(=O)N(C[C@H]2C[C@@H]2C(=O)NC2CC(C)(C)Oc3c(Cl)cc(Cl)cc32)C(=N)N1` (some centres unmarked) [Example 97A]: the EC50 turned out to be 180 nM. The same measure, in the same setting: the value for `CC1(C)CC(=O)N(C[C@H]2C[C@@H]2C(=O)NC2CC(C)(C)Oc3c(C(F)(F)F)ccc(F)c32)C(=N)N1` (some centres unmarked) [Example 99] was 130 nM; that for `CC1(C)CC(=O)N(C[C@H]2C[C@@H]2C(=O)N[C@H]2CC(C)(C)Oc3ccc(C(F)(F)F)cc32)C(=N)N1` [Example 100] was 170 nM. Same read-out and setting: for `COCC[C@H]([C@H]1C[C@@H]1C(=O)N[C@H]1CC(C)(C)Oc2ccc(Cl)cc21)N1C(=N)NC(C)(C)CC1=O` [Example 101] the value was 2.9 nM; for `CC[C@@]1(C)CC(=O)N([C@H](c2cncc(F)c2)[C@H]2C[C@@H]2C(=O)N[C@@H]2c3ccccc3OCC2(C)C)C(=N)N1` [Example 102A], 0.8 nM; for `CC[C@@]1(C)CC(=O)N(C(c2cncc(F)c2)[C@H]2C[C@@H]2C(=O)N[C@@H]2c3ccccc3OCC2(C)C)C(=N)N1` (some centres unmarked) [Example 102B], 2.5 nM. Take `COCC[C@H]([C@H]1C[C@@H]1C(=O)NC1CC(C)(C)Oc2c(Cl)cc(Cl)cc21)N1C(=N)NC(C)(C)CC1=O` (some centres unmarked) [Example 106A]: the EC50 was 7.4 nM. `COCC[C@H]([C@H]1C[C@@H]1C(=O)N[C@H]1CC(C)(C)Oc2cccc(OC(F)(F)F)c21)N1C(=N)NC(C)(C)CC1=O` [Example 107A]: the EC50 worked out at 2.1 nM. For `COCC[C@H]([C@H]1C[C@@H]1C(=O)N[C@@H]1CC(C)(C)Oc2cccc(OC(F)(F)F)c21)N1C(=N)NC(C)(C)CC1=O` [Example 107B], the concentration giving a half-maximal response (EC50) was found to be 11 nM. Still for that read-out and setting: for `COCC[C@H]([C@H]1C[C@@H]1C(=O)N[C@@H]1CC(C)(C)Oc2ccc(C(F)(F)F)cc21)N1C(=N)NC(C)(C)CC1=O` [Example 110A] the value was 21 nM; for `COCC[C@H]([C@H]1C[C@@H]1C(=O)N[C@H]1CC(C)(C)Oc2ccc(C(F)(F)F)cc21)N1C(=N)NC(C)(C)CC1=O` [Example 110B], 7.2 nM. On the same count and under the same terms, the value for `COCC[C@H]([C@H]1C[C@@H]1C(=O)NC1CC(C)(C)Oc2c(F)cccc21)N1C(=N)NC(C)(C)CC1=O` (some centres unmarked) [Example 111A] was 24 nM; that for `COCC[C@H]([C@H]1C[C@@H]1C(=O)NC1CC(C)(C)Oc2c(Cl)cccc21)N1C(=N)NC(C)(C)CC1=O` (some centres unmarked) [Example 112A] was 18 nM. On the same count and under the same terms, for `COCC[C@H]([C@H]1C[C@@H]1C(=O)N[C@@H]1CC(C)(C)Oc2c(F)cc(F)cc21)N1C(=N)NC(C)(C)CC1=O` [Example 113A] the value was 19 nM. For the compound `COCC[C@H]([C@H]1C[C@@H]1C(=O)N[C@H]1CC(C)(C)Oc2c(F)cc(F)cc21)N1C(=N)NC(C)(C)CC1=O` [Example 113B], the EC50 was 7.5 nM. The same measure, in the same setting: the value for `COCC[C@H]([C@H]1C[C@@H]1C(=O)N[C@@H]1CC(C)(C)Oc2c(C(F)(F)F)ccc(F)c21)N1C(=N)NC(C)(C)CC1=O` [Example 114A] was 89 nM. Take `COCC[C@H]([C@H]1C[C@@H]1C(=O)N[C@H]1CC(C)(C)Oc2c(C(F)(F)F)ccc(F)c21)N1C(=N)NC(C)(C)CC1=O` [Example 114B]: the EC50 stood at 5.1 nM. Still for that read-out and setting: for `CC1(C)CC(=O)N([C@H](c2cccnc2)[C@H]2C[C@@H]2C(=O)N[C@@H]2CC(C)(C)Oc3c(C(F)(F)F)ccc(F)c32)C(=N)N1` [Example 115A] the value was 6.6 nM. Same read-out and setting: for `CC1(C)CC(=O)N([C@H](c2cccnc2)[C@H]2C[C@@H]2C(=O)N[C@H]2CC(C)(C)Oc3c(C(F)(F)F)ccc(F)c32)C(=N)N1` [Example 115B] the value was 1 nM; for `COCC[C@H]([C@H]1C[C@@H]1C(=O)N[C@H]1CC(C)(C)Oc2cccc(Cl)c21)N1C(=N)NC(C)(C)CC1=O` [Example 116A], 0.8 nM; for `COCC[C@H]([C@H]1C[C@@H]1C(=O)N[C@@H]1CC(C)(C)Oc2cccc(Cl)c21)N1C(=N)NC(C)(C)CC1=O` [Example 116B], 18 nM. Regarding `CC1(C)CC(=O)N(C[C@H]2C[C@@H]2C(=O)N[C@H]2CC(C)(C)Oc3cccc(OC(F)(F)F)c32)C(=N)N1` [Example 118], the half-maximal effective concentration (EC50) worked out at 63 nM.

`CC1(C)CC(=O)N(C[C@H]2C[C@@H]2C(=O)N[C@H]2CC(C)(C)Oc3cccc(Cl)c32)C(=N)N1` [Example 119]: the EC50 was determined as 26 nM. In the case of `CC1(C)CC(=O)N([C@H](c2cccnc2)[C@H]2C[C@@H]2C(=O)N[C@H]2CC(C)(C)Oc3ccc(Cl)cc32)C(=N)N1` [Example 120], the EC50 was determined as 1 nM. The same measure, in the same setting: the value for `CC1(C)CC(=O)N([C@H](c2cccnc2)[C@H]2C[C@@H]2C(=O)NC2CC(C)(C)Oc3c(Cl)cccc32)C(=N)N1` (some centres unmarked) [Example 121A] was 2.5 nM; that for `CC1(C)CC(=O)N([C@H](c2cccnc2)[C@H]2C[C@@H]2C(=O)NC2CC(C)(C)Oc3c(F)cc(F)cc32)C(=N)N1` (some centres unmarked) [Example 122A] was 2.3 nM. On to `CC[C@]1(C)CC(=O)N([C@H](CCOC)[C@H]2C[C@@H]2C(=O)N[C@H]2CC(C)(C)Oc3ccc(C)cc32)C(=N)N1` [Example 123], for which the EC50 turned out to be 2 nM. Still for that read-out and setting: the value for `CC[C@]1(C)CC(=O)N([C@H](CCOC)[C@H]2C[C@@H]2C(=O)N[C@H]2CC(C)(C)Oc3ccc(Cl)cc32)C(=N)N1` [Example 124] was 0.8 nM.

The assay is the same for the next values; noted with them: Table 3; 72 hours growth, LDH readout; read-out: EC50.
For the compound `CC1(C)CC(=O)N([C@H](c2cccnc2)[C@H]2C[C@@H]2C(=O)N[C@@H]2CC(C)(C)Oc3cccc(F)c32)C(=N)N1` [Example 86B], the EC50 was 2.8 nM. Take `CCC1(CC)CC(NC(=O)[C@H]2C[C@@H]2[C@@H](CCOC)N2C(=N)NC(C)(C)CC2=O)c2ccccc2O1` (some centres unmarked) [Example 92B]: the EC50 was found to be 7.2 nM. Consider `CC1(C)CC(=O)N([C@H](c2cccnc2)[C@H]2C[C@@H]2C(=O)NC2CC(C)(C)Oc3c(F)cccc32)C(=N)N1` (some centres unmarked) [Example 93B], for which the EC50 was found to be 2.4 nM.

Consider `COc1cccc2c1C(NC(=O)[C@H]1C[C@@H]1[C@@H](c1cccnc1)N1C(=N)NC(C)(C)CC1=O)CC(C)(C)O2` (some centres unmarked) [Example 96B], for which the EC50 was determined as 3.3 nM. The same measure, in the same setting: for `CC1(C)CC(=O)N(C[C@H]2C[C@@H]2C(=O)NC2CC(C)(C)Oc3c(Cl)cc(Cl)cc32)C(=N)N1` (some centres unmarked) [Example 97B] the value was 220 nM; for `COCC[C@H]([C@H]1C[C@@H]1C(=O)NC1CC(C)(C)Oc2c(Cl)cc(Cl)cc21)N1C(=N)NC(C)(C)CC1=O` (some centres unmarked) [Example 106B], 10 nM; for `COCC[C@H]([C@H]1C[C@@H]1C(=O)NC1CC(C)(C)Oc2c(F)cccc21)N1C(=N)NC(C)(C)CC1=O` (some centres unmarked) [Example 111B], 15 nM. On the same count and under the same terms, for `COCC[C@H]([C@H]1C[C@@H]1C(=O)NC1CC(C)(C)Oc2c(Cl)cccc21)N1C(=N)NC(C)(C)CC1=O` (some centres unmarked) [Example 112B] the value was 9.4 nM; for `CC1(C)CC(=O)N([C@H](c2cccnc2)[C@H]2C[C@@H]2C(=O)NC2CC(C)(C)Oc3c(Cl)cccc32)C(=N)N1` (some centres unmarked) [Example 121B], 2 nM; for `CC1(C)CC(=O)N([C@H](c2cccnc2)[C@H]2C[C@@H]2C(=O)NC2CC(C)(C)Oc3c(F)cc(F)cc32)C(=N)N1` (some centres unmarked) [Example 122B], 2.2 nM.
